{"source": "patent US20150152083A1", "about": "“Compounds and Compositions for Modulating EGFR Activity” (IRM LLC, A Delaware Limited Liability Company, priority 2012, published 2015)", "key": {"EGFR (L858R)": {"biological_target": "T1, EGFR (L858R) (Homo sapiens, UniProt P00533, L858R)", "T1 construct": "host or cells: NIH3T3", "T1 sequence (P00533 25-1210 L858R)": "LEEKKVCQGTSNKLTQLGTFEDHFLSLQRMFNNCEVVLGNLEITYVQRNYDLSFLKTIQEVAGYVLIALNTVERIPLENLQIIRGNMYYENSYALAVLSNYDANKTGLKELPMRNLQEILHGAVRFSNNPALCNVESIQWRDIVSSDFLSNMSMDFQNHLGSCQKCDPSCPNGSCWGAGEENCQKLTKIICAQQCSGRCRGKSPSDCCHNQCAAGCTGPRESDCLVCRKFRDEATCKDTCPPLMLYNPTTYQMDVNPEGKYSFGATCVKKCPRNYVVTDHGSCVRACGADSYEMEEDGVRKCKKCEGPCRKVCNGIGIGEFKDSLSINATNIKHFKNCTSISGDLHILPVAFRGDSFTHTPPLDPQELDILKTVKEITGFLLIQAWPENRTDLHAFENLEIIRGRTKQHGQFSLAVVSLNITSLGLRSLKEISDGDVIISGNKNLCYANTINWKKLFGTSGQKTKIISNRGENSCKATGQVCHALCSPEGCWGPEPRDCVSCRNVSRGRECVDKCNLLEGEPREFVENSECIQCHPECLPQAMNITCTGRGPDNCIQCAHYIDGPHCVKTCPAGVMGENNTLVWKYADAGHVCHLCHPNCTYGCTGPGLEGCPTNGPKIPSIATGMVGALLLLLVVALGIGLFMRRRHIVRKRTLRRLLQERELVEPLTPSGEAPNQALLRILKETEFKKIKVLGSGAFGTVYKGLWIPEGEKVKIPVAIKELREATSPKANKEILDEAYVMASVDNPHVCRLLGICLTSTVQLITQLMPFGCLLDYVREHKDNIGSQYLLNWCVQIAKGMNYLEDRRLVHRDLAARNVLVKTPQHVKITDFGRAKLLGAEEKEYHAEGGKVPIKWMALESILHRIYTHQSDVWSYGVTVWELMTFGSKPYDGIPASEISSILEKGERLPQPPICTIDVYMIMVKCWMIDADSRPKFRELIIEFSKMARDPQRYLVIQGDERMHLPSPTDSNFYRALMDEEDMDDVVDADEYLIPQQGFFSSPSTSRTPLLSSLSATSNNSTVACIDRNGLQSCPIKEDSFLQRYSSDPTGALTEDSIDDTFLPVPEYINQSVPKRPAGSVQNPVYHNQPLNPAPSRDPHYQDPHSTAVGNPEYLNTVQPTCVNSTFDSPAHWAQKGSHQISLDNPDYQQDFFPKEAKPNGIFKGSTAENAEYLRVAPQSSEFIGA", "assay": "EGFR target modulation in engineered NIH3T3 cell lines (phospho-EGFR AlphaLISA)", "format": "cell-based", "conditions": "NIH3T3 cells expressing human EGFR L858R; 3 hours compound", "experimental": "(§1) EGFR Target Modulation in Engineered NIH3T3 Cell Lines\n(§2) NIH3T3 cell lines expressing human EGFR (WT, L858R, and L858RT790M) (obtained from Matthew Meyerson's Lab at DFCI) were maintained in 10% FBS/DMEM supplemented with 100 μg/ml Penicillin/Streptomycin (Hyclone #SV30010) and 2 μg/ml Puromycin. The cells were harvested with 0.05% Trypsin/EDTA (Hyclone #SH30236.01), re-suspended in 5% FBS/DMEM Pen/Strep without Puromycin and plated at 9,000 cells per well in 50 μl of media in a 384-well black plate with clear bottoms (Greiner #789068G). The cells were allowed to incubate overnight in a 37° C., 5% CO2 humidified tissue culture incubator. A 12-point test compound curve was prepared by serial diluting a 10 μM stock 1:3 in DMSO in a 384-well compound plate (Greiner #789201L). The serial diluted compounds were transferred to the plate containing cells by using a 50 nl Pin Head device (Perkin Elmer) and the cells were placed back in the incubator for 3 hours. Only the EGFR WT-expressing cells were induced with 50 ng/ml EGF (Preprotech #AF-100-15) for 5 minutes before lysis. The media was removed and cells were lysed in 25 μl of Lysis buffer containing protease and phosphatase inhibitors (1% Triton X-100, 20 mM Tris, pH 7.5, 1 mM EDTA, 1 mM EGTA, 150 mM NaCl, 1× complete cocktail inhibitor (Roche #11 697 498 001), 1× Phosphatase Inhibitor Cocktail Set II and Set III (Sigma #P5726 and #P0044)). The plates were shaken at 4° C. for 5 minutes with foil top at maximum speed. An aliquot of 5 μl from each well was transferred to ProxiPlate™ 384-well Plus plates (PE #6008289). The plates were sealed with a foil top and frozen at −80° C. and thawed when needed.\n(§3) The frozen aliquots were thawed and briefly centrifuged. All antibodies and beads were diluted in 1× AlphaLISA HiBlock Buffer (PE #AL004C). Biotinylated anti-phospho-EGFR (Y1068) (Cell Signaling #4031) was incubated with the lysate for 1 hour at room temperature at 1 nM final concentration. Goat anti-total EGFR (R&D Systems #AF231) was added and allowed to equilibrate for 1 hour at room temperature at 1 nM final concentration. Then, 10 μl of mixed beads (AlphaScreen Streptavidin Donor Beads (PE #6760002S) and AlphaLISA anti-goat IgG Acceptor Beads (PE #AL107C)) was equilibrated for 1.5 hours before reading on EnVision plate reader using the built-in settings for AlphaScreen.\n(§4) Cells untreated (L858R and L858RT790M) or EGF-induced (WT) were set to 100% maximum response. For a negative control, 10 μM HKI-272 was used to normalize data to 0% of maximum response. With these parameters, the IC50's for each compound in each cell line was calculated using non-linear curve fitting analysis."}, "EGFR (WT)": {"biological_target": "T2, EGFR (WT) (Homo sapiens, UniProt P00533)", "T2 construct": "host or cells: NIH3T3", "T2 sequence (P00533 25-1210)": "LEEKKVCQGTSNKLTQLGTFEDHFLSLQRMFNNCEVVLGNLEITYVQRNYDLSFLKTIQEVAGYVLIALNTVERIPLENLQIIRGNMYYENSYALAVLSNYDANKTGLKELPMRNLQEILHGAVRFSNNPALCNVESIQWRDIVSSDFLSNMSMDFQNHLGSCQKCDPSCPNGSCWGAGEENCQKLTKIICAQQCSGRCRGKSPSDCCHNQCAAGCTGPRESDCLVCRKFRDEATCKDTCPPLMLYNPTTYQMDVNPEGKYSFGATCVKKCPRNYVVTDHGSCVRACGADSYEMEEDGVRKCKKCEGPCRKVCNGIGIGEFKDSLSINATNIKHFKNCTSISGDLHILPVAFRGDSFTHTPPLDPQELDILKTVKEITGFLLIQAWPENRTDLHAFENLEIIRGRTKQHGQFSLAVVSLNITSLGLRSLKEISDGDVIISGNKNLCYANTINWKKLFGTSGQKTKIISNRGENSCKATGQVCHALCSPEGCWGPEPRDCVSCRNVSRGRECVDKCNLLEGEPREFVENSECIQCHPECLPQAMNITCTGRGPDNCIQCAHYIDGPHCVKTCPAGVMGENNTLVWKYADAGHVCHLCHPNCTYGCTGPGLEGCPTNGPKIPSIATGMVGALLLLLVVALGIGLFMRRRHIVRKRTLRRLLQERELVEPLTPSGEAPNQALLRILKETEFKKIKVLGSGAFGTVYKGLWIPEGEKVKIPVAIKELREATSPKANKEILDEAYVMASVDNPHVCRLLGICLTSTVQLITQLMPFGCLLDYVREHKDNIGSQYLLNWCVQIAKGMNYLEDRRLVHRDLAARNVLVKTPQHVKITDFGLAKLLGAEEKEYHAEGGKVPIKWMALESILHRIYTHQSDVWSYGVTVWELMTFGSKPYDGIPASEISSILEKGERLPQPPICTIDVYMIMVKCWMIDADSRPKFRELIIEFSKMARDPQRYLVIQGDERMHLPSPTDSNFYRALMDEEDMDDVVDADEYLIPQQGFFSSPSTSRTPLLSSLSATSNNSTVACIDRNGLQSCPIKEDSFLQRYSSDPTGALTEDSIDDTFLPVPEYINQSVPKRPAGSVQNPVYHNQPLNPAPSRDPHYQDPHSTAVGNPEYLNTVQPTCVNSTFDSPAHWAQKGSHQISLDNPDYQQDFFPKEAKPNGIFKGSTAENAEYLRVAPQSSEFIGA", "assay": "EGFR target modulation in engineered NIH3T3 cell lines (phospho-EGFR AlphaLISA)", "format": "cell-based", "conditions": "NIH3T3 cells expressing human EGFR WT; 3 hours compound; induced with 50 ng/ml EGF", "experimental": "as §1, §2, §3, §4"}, "EGFR(L858R/T790M) [1]": {"biological_target": "T3, EGFR(L858R/T790M) (Homo sapiens, UniProt P00533, L858R/T790M)", "assay": "EGFR target modulation in engineered NIH3T3 cell lines (phospho-EGFR AlphaLISA)", "format": "cell-based", "design": "host or cells: NIH3T3", "conditions": "NIH3T3 cells expressing human EGFR L858R/T790M; 3 hours compound", "experimental": "as §1, §2, §3, §4"}, "EGFR(L858R/T790M) [2]": {"biological_target": "T3, EGFR(L858R/T790M)", "assay": "EGFR biochemical assay (HTRF), IC50 determination", "design": "purchased from Carna (GST-a.a. 669-1210); purchased Carna", "conditions": "10 μM ATP", "experimental": "All EGFR biochemical assays were carried out by HTRF method. The EGFR(L858RT790M) enzyme were purchased from Carna (GST-a.a. 669-1210). The substrate peptide Biotin-TK-peptide was purchased from Cis-Bio. The reaction mixtures contained 1 μM peptide substrate, 10 μM ATP, and 0.036 nM EGFR(L858RT790M) in the reaction buffer (50 mM HEPES pH 7.1, 10 mM MgCl2, 0.01% BSA, 1 mM TCEP and 0.1 mM Na3VO4) at a final volume of 10 μL. All reactions were carried out at room temperature in white ProxiPlate™ 384-well Plus plates (PerkinElmer) and were quenched with 5 μL of 0.2 M EDTA at 60 min Five μL of the detection reagents (2.5 ng PT66K and 0.05 μg SAXL per well) were added, the plates were incubated at room temperature for 1 h and then read in EnVision reader. […] For no-preincubation condition, the compounds were added to the assay solution containing ATP and peptide, and the reaction was initiated by addition of enzyme. For pre-incubation conditions, the compounds were added to the assay solution containing enzyme and peptide, and pre-incubated at room temperature for desired period of time, then the reaction was initiated by addition of ATP."}}}
{"smiles": "C=CC(=O)Nc1cccc(-n2c(NC(=O)c3ccc(F)cc3)nc3cc(C)ccc32)c1", "note": "[Example 1, N-(1-(3-acrylamidophenyl)-5-methyl-1H-benzo[d]imidazol-2-yl)-4-fluorobenzamide]", "values": [{"measurement": "IC50", "setting": "EGFR (L858R)", "value": 0.053, "unit": "µM"}, {"measurement": "IC50", "setting": "EGFR (WT)", "value": "> 10", "unit": "µM"}, {"measurement": "IC50", "setting": "EGFR(L858R/T790M) [1]", "value": 0.037, "unit": "µM"}, {"measurement": "IC50", "setting": "EGFR(L858R/T790M) [2]; EGFR (L858R/T790M) IC50 (μM) 90 min pre-incubation, 90 min pre-incubation", "value": 0.002, "unit": "µM"}, {"measurement": "IC50", "setting": "EGFR(L858R/T790M) [2]; no pre-incubation, read-out: EGFR (L858R/T790M) IC50 (μM) No pre-incubation", "value": 0.016, "unit": "µM"}]}
